# Assay results published in US8883809B2, “Isoxazole/isoxazoline/combretastatin linked dihydroquinazolinone hybrids as potential anticancer agents and process for the preparation thereof” (Council of Scientific & Industrial Research, priority 2008, dated 2014).
# Like-named read-outs stand apart in the source and are kept apart here.
# What was measured:
# HS 578T = assay: NCI in vitro cytotoxicity, SRB assay; conditions: Homo sapiens
# CAKI-1 = assay: NCI in vitro cytotoxicity, SRB assay; conditions: Homo sapiens
# HL-60(TB) = assay: NCI in vitro cytotoxicity, SRB assay; assay type: cell-based; conditions: Homo sapiens; Leukemia HL-60(TB)
# NCI-H460 = assay: NCI in vitro cytotoxicity, SRB assay; conditions: Homo sapiens
# Text: (§1) The results are expressed as percent of cell growth determined relative to that of untreated control cells (Table 2).
# T-47D = assay: NCI in vitro cytotoxicity, SRB assay; conditions: Homo sapiens, T47D
# SK-MEL-28 = assay: NCI in vitro cytotoxicity, SRB assay; conditions: Homo sapiens
# NCI-H23 = assay: NCI in vitro cytotoxicity, SRB assay; conditions: Homo sapiens
# Text: as §1
# OVCAR-8 = assay: NCI in vitro cytotoxicity, SRB assay; conditions: Homo sapiens
# [1] = test system: Ovarian cancer cell lines; assay: NCI in vitro cytotoxicity, panel average
# SF-539 = assay: NCI in vitro cytotoxicity, SRB assay; conditions: Homo sapiens
# SNB-75 = assay: NCI in vitro cytotoxicity, SRB assay; conditions: Homo sapiens
# CCRF-CEM = assay: NCI in vitro cytotoxicity, SRB assay; conditions: Homo sapiens
# DU-145 = assay: NCI in vitro cytotoxicity, SRB assay; conditions: Homo sapiens
# NCI-H522 = assay: NCI in vitro cytotoxicity, SRB assay; conditions: Homo sapiens
# Text: as §1
# OVCAR-3 = assay: NCI in vitro cytotoxicity, SRB assay; conditions: Homo sapiens
# SF-295 = assay: NCI in vitro cytotoxicity, SRB assay; conditions: Homo sapiens
# ACHN = assay: NCI in vitro cytotoxicity, SRB assay; conditions: Homo sapiens
# Renal cancer cell lines = assay: NCI in vitro cytotoxicity, panel average
# NCI/ADRRES = assay: NCI in vitro cytotoxicity, SRB assay; conditions: Homo sapiens, NCI/ADR-RES
# [2] = test system: Non-small-cell lung cancer cell lines; assay: NCI in vitro cytotoxicity, panel average
# SW-620 = assay: NCI in vitro cytotoxicity, SRB assay; conditions: Homo sapiens
# A549/ATCC = assay: NCI in vitro cytotoxicity, SRB assay; conditions: Homo sapiens
# EKVX = assay: NCI in vitro cytotoxicity, SRB assay; conditions: Homo sapiens
# Leukemia cell lines = assay: NCI in vitro cytotoxicity, panel average
# SNB-19 = assay: NCI in vitro cytotoxicity, SRB assay; conditions: Homo sapiens
# [3] = test system: Prostate cancer cell lines; assay: NCI in vitro cytotoxicity, panel average
# LOX IMVI = assay: NCI in vitro cytotoxicity, SRB assay; conditions: Homo sapiens
# UACC-62 = assay: NCI in vitro cytotoxicity, SRB assay; conditions: Homo sapiens
# OVCAR-5 = assay: NCI in vitro cytotoxicity, SRB assay; conditions: Homo sapiens
# IGROV1 = assay: NCI in vitro cytotoxicity, SRB assay; conditions: Homo sapiens, IGROV-1
# 786-0 = assay: NCI in vitro cytotoxicity, SRB assay; conditions: Homo sapiens
# SK-OV-3 = assay: NCI in vitro cytotoxicity, SRB assay; conditions: Homo sapiens
# A498 = assay: NCI in vitro cytotoxicity, SRB assay; conditions: Homo sapiens
# [4] = test system: forty nine human tumour cell lines; assay: NCI in vitro cytotoxicity screen, SRB assay, 48 h continuous exposure
# HOP-92 = assay: NCI in vitro cytotoxicity, SRB assay; conditions: Homo sapiens
# Text: as §1
# HCC-2998 = assay: NCI in vitro cytotoxicity, SRB assay; conditions: Homo sapiens
# Text: as §1
# OVCAR-4 = assay: NCI in vitro cytotoxicity, SRB assay; conditions: Homo sapiens
# K-562 = assay: NCI in vitro cytotoxicity, SRB assay; conditions: Homo sapiens, K562
# Colon cancer cell lines = assay: NCI in vitro cytotoxicity, panel average
# HCT-116 = assay: NCI in vitro cytotoxicity, SRB assay; conditions: Homo sapiens
# MDA-MB-468 = assay: NCI in vitro cytotoxicity, SRB assay; conditions: Homo sapiens
# RPMI-8226 = assay: NCI in vitro cytotoxicity, SRB assay; conditions: Homo sapiens
# MDA-MB-231/ATCC = assay: NCI in vitro cytotoxicity, SRB assay; conditions: Homo sapiens
# MOLT-4 = assay: NCI in vitro cytotoxicity, SRB assay; conditions: Homo sapiens
# MDA-MB-435 = assay: NCI in vitro cytotoxicity, SRB assay; conditions: Homo sapiens
# UACC-257 = assay: NCI in vitro cytotoxicity, SRB assay; conditions: Homo sapiens
# CNS cancer cell lines = assay: NCI in vitro cytotoxicity, panel average; conditions: average of the panel's cell lines
# HCT-15 = assay: NCI in vitro cytotoxicity, SRB assay; conditions: Homo sapiens
# MCF7 = assay: NCI in vitro cytotoxicity, SRB assay; conditions: Homo sapiens
# M14 = assay: NCI in vitro cytotoxicity, SRB assay; conditions: Homo sapiens
# SN12C = assay: NCI in vitro cytotoxicity, SRB assay; conditions: Homo sapiens
# UO-31 = assay: NCI in vitro cytotoxicity, SRB assay; conditions: Homo sapiens
# Breast cancer cell lines = assay: NCI in vitro cytotoxicity, panel average
# SF-268 = assay: NCI in vitro cytotoxicity, SRB assay; conditions: Homo sapiens
# SK-MEL-5 = assay: NCI in vitro cytotoxicity, SRB assay; conditions: Homo sapiens
# PC-3 = assay: NCI in vitro cytotoxicity, SRB assay; conditions: Homo sapiens
# Melanoma cell lines = assay: NCI in vitro cytotoxicity, panel average
# KM12 = assay: NCI in vitro cytotoxicity, SRB assay; conditions: Homo sapiens
# U251 = assay: NCI in vitro cytotoxicity, SRB assay; conditions: Homo sapiens, U-251
# [5] = Homo sapiens, read-out: Log10 LC50 (converted)
smiles,measurement,setting,value
"COc1cc(C2NC(=O)c3ccccc3N2)ccc1OCCCCCOc1c(OC)cc(C2=NOC(c3cc(OC)c(OC)c(OC)c3)C2)cc1OC (centres unmarked) [Compound 7d, 2-[4-(5-{2,6-Dimethoxy-4-[5-(3,4,5-trimethoxy-phenyl)-4,5-dihydro-isoxazol-3-yl]-phenoxy}-pentyloxy)-3-methoxy-phenyl]-2,3-dihydro-1H-quinazolin-4-one]",GI50,HS 578T,15 µM
same,GI50,CAKI-1,18 µM
same,GI50,HL-60(TB),12.2 µM
same,GI50,NCI-H460,15.1 µM
same,GI50,T-47D,0.3 µM
same,GI50,SK-MEL-28,3.24 µM
same,GI50,NCI-H23,0.38 µM
same,GI50,OVCAR-8,25.7 µM
same,CC50,[1]; [5],≥ 100 µM
same,Log10 GI50,"[1]; Ovarian, average of the panel's cell lines",−5.20 mol/L
same,GI50,SF-539,21.2 µM
same,GI50,SNB-75,34.2 µM
same,GI50,CCRF-CEM,0.62 µM
same,GI50,DU-145,22.4 µM
same,GI50,NCI-H522,27.4 µM
same,GI50,OVCAR-3,12.4 µM
same,GI50,SF-295,16.4 µM
same,GI50,ACHN,0.95 µM
same,CC50,Renal cancer cell lines; [5],≥ 100 µM
same,Log10 GI50,"Renal cancer cell lines; Renal, average of the panel's cell lines",−4.72 mol/L
same,GI50,NCI/ADRRES,10.6 µM
same,CC50,[2]; [5],≥ 100 µM
same,Log10 GI50,"[2]; Non-small-cell lung, average of the panel's cell lines",−4.97 mol/L
same,GI50,SW-620,21 µM
same,GI50,A549/ATCC,15.7 µM
same,GI50,EKVX,0.36 µM
same,CC50,Leukemia cell lines; [5],70.8 µM
same,Log10 GI50,"Leukemia cell lines; Leukemia, average of the panel's cell lines",−6.17 mol/L
same,GI50,SNB-19,16.6 µM
same,CC50,[3]; [5],≥ 100 µM
same,Log10 GI50,"[3]; Prostate, average of the panel's cell lines",−5.39 mol/L
same,GI50,LOX IMVI,19.5 µM
same,GI50,UACC-62,0.99 µM
same,GI50,OVCAR-5,31.7 µM
same,GI50,IGROV1,0.32 µM
same,GI50,786-0,31.8 µM
same,GI50,SK-OV-3,38.5 µM
same,GI50,A498,19.3 µM
same,GI50,"[4]; Homo sapiens, read-out: GI50 value",< 40 µM
same,GI50,"[4]; Homo sapiens, read-out: Log10 GI50 mean graph midpoint (MG_MID) (converted)",5.25 µM
same,CC50,"[4]; Homo sapiens, read-out: Log10 LC50 mean graph midpoint (MG_MID) (converted)",95.5 µM
same,in vitro cytotoxicity (in words),[4]; cancer cell lines,significant cytotoxicity
same,Log10 TGI mean graph midpoint (MG_MID),[4]; human tumour cell lines,−4.18
same,GI50,HOP-92,15.8 µM
same,GI50,HCC-2998,0.06 µM
same,GI50,OVCAR-4,0.49 µM
same,GI50,K-562,0.37 µM
same,Log10 GI50,"Colon cancer cell lines; Colon, average of the panel's cell lines",−5.17 mol/L
same,CC50,Colon cancer cell lines; [5],≥ 100 µM
same,GI50,HCT-116,0.26 µM
same,GI50,MDA-MB-468,0.08 µM
same,GI50,RPMI-8226,0.06 µM
same,GI50,MDA-MB-231/ATCC,14.7 µM
same,GI50,MOLT-4,0.68 µM
same,GI50,MDA-MB-435,0.6 µM
same,GI50,UACC-257,0.29 µM
same,Log10 GI50,CNS cancer cell lines,−4.66 mol/L
same,GI50,HCT-15,15.9 µM
same,GI50,MCF7,0.45 µM
same,GI50,M14,19.8 µM
same,GI50,SN12C,39.1 µM
same,GI50,UO-31,21.4 µM
same,Log10 GI50,"Breast cancer cell lines; Breast, average of the panel's cell lines",−5.82 mol/L
same,CC50,Breast cancer cell lines; [5],≥ 100 µM
same,GI50,SF-268,20.2 µM
same,GI50,SK-MEL-5,0.18 µM
same,GI50,PC-3,0.74 µM
same,CC50,Melanoma cell lines; [5],≥ 100 µM
same,Log10 GI50,"Melanoma cell lines; Melanoma, average of the panel's cell lines",−5.69 mol/L
same,GI50,KM12,10.4 µM
same,GI50,U251,25.2 µM
